Consider 7 compounds from patent US3966731A, “2-Fluoromethyl-3-o-tolyl-6-amino-4(3H)-quinazolinone” (Tanabe Seiyaku Co., Ltd., priority 1973, dated 1976).

Series [1] relates to mice. Nature of the series: Muscle relaxing activity, traction method (oral, mice). Type of series: in vivo. Particulars: Mus musculus, 10, 20 and 30 minutes after dosing. The method, then:
(§1) (A) :Activity examined by the traction method. A drug was administered
(§2) orally to mice. After 10, 20 and 30 minutes of the dosing, the mice were
(§3) suspended by the forepaws to a metallic wire of 1 mm in diameter.
(§4) ED50 of the drug was estimated from the number of mice which fell ou
(§5) of the wire within 10 seconds.

In series [2] the test system is mice. Nature of the series: Muscle relaxing activity, inclined plate method (oral, mice). Particulars: Mus musculus, 15, 30 and 45 minutes after dosing, read-out: Muscle relaxing activity ED50 (B). Type of series: in vivo. The protocol:
(§6) (B) :Activity examined by the inclined plate method. A drug was
(§7) administered orally to mice. After 15, 30 and 45 minutes of the dosing,
(§8) the mice were put on the center of a canvas (60 cm in length and 50 cm in
(§9) width) having been set up with an inclination of 60 degrees. ED50 of
(§10) the drug was estimated from the number of mice which slipped down from th
(§11) canvas within one minute.

Series [3] concerns mice. Nature of the series: Muscle relaxing activity, rotating rod method (oral, mice). The class given is in vivo. The following applies: Mus musculus, 0.5 h, 30 minutes after dosing, read-out: Muscle relaxing activity ED50 (C). The method, then:
(§12) (C) :Activity examined by the rotating rod method. A drug was administere
(§13) orally to mice. After 30 minutes of the dosing, the mice were placed for
(§14) minutes on rotating rods (3.5 cm in diameter, 14 rpm.). ED50 of the
(§15) drug was estimated from the number of mice which fell out of the rods

Series [4] can be described thus: Hypnotic activity, loss of righting reflex (oral, mice); therapeutic index. The class given is in vivo. Particulars: mouse, in vivo, mice, oral; for selectivity ratio: po; for TD50: loss of righting reflex for more than 20 seconds in 50 % of the mice, read-out: Side effect: Hypnotic activity HD50 (D). The method, then:
(§16) (D) :A drug was administered orally to mice. The hypnotic activity of the
(§17) drug was determined by the number of mice which lost righting reflex for
(§18) more than 20 seconds. HD50 of the drug was estimated as the dose
(§19) which was required to produce the losing of righting reflex in 50 % of th
(§20) Therapeutic index and Safety margin: Said index and margin were calculate

Series [5] can be described thus: Acute toxicity (oral, mice, 72 hours); safety margin. The class given is in vivo. Particulars: mouse, in vivo, mice, oral; for selectivity ratio: po; for LD50 at 72 h: died 72 hours after dosing, read-out: Side effect: Acute toxicity LD50 (E). The method, then: (§21) (E) :A drug was administered orally to mice. The 50 % lethal dose
(§22) (LD50) of the drug was estimated from the number of mice which died
(§23) 72 hours after the dosing.
as §20

Series [6] relates to cardiazol-induced convulsive death in mice. Nature of the series: Anti-cardiazol activity, protection from cardiazol-induced convulsive death. Type of series: in vivo. Particulars: for ED50: Mus musculus, oral, 125 mg of cardiazol s.c. 30 minutes after dosing, protection at 60 minutes. The method, then:
(§24) The quinazolinone derivative [I] of the present invention has potent tranquilizing, anti-convulsive and analgesic activities. […] On the other hand, when examined under the same condition as above, 200 mg of Mefenamic acid[Chemical name: N-(2,3-xylyl)anthranilic acid] are required to produce 25 % decrease in said carageenin-induced edema.
Anti-cardiazol activity. A drug was administered orally to mice. After 30
minutes of the dosing, 125 mg of cardiazol were injected subcutaneously t
the mice. ED50 of the drug was estimated from the number of mice
which were protected from cardiazol-induced convulsive death 60 minutes
after injection of cardiazol.

Series [7] concerns acetic acid-induced writhings. Nature of the series: Analgesic activity, acetic acid-writhing method. Particulars: for ED50: Mus musculus, oral, mice, 1 % acetic acid i.p., 50 % reduction in writhings. The class given is in vivo, mice. The protocol: as §24
Analgesic activity. One % acetic acid solution was injected
intraperitoneally to mice at the dose of […] after oral
administration of a drug, and the number of writhings per mouse was
counted for 5 minutes starting at 10 minutes after injection of acetic
acid. ED50 of the drug was estimated as the dose which would produce
50 % reduction in acetic acid-induced writhings.
In general terms: An intraperitoneal irritant provokes the stretching counted in writhing tests.

The conditions of series [8]: Japanese patent application No. 81910/1971; cited from earlier work.
Series [9] concerns mice. Nature of the series: Central muscle relaxing activity (Table 1, traction, inclined plate and rotating rod methods together). The following applies: mouse, in vivo. The protocol: as §1, §2, §3, §4, §5, §6, §7, §8, §9, §10, §11, §12, §13, §14, §15
The conditions of series [10]: Arzneimittel Forshung 21(1971), 238-243; U.S. Pat. No. 3317388; cited from earlier work.
Series [11] has as its system mice. Nature of the series: Hypnotic activity, loss of righting reflex (oral, mice); therapeutic index. Type of series: in vivo. The following applies: for hypnotic activity (side effect), in words: mouse, in vivo. The method, then:
as §16, §17, §18, §19, §20

The subject of another series is carageenin-induced edema. Nature of the series: Anti-inflammatory activity, carageenin-induced edema. The class given is in vivo, rats. The method, then:
as §24
Anti-inflammatory activity. A drug was administered orally to rats at the
dose of 30 mg/kg. To the control group was administered orally a
physiological saline solution. After one hour, one % carageenin solution
was injected subcutaneously to the rats through planta of hind legs at th
dose of 0.5 ml/rat. Then, the volume of the hind legs in the control and
medicated groups were measured at 3 hours after injection of carageenin,
and the preventive effect (%) of the drug against carageenin-induced edem
was calculated therefrom.

The test system of series [12] is mice. Nature of the series: Acute toxicity (oral, mice, 72 hours); safety margin. Type of series: in vivo. Particulars: vs 2-methyl-3-(o-tolyl)-6-amino-4(3H)-quinazolinone; ratio of muscle relaxing activity to acute toxicity. The protocol: as §21, §22, §23, §20
The nature of series [13]: Tranquilizing activity (no method given). Particulars: in vivo.
[14] abbreviates: HD50 / ED50 inclined plate method, read-out: Therapeutic index D/B.
Where [15] appears, read: HD50 / ED50 rotating rod method, read-out: Therapeutic index D/C.
[16] abbreviates: HD50 / ED50 traction method, read-out: Therapeutic index D/A.
Setting [17] is: LD50 / ED50 inclined plate method, read-out: Safety margin E/B.
[18] abbreviates: LD50 / ED50 rotating rod method, read-out: Safety margin E/C.
[19] abbreviates: LD50 / ED50 traction method, read-out: Safety margin E/A.

Consider `Cc1ccccc1-n1c(CF)nc2ccccc2c1=O` [2-fluoromethyl-3-(o-tolyl)-4(3H)-quinazolinone], for which the ED50 (commonly the midpoint of the dose-response relation) was 138 mg/kg in the series on mice [1]; 58.9 mg/kg with mice [2]; 67.5 mg/kg in the series on mice [3]; 56.1 mg/kg in [6] (mice); 42.1 mg/kg in [7]. Besides, the selectivity ratio stood at 1.48 in [4] (setting [14]); 1.29 in series [4] (setting [15]); 0.63 in [4] (setting [16]); 12.1 in series [5] (setting [17]); 10.5 in series [5] (setting [18]); 5.1 in series [5] (setting [19]). The TD50 in [4] was determined as 87.3 mg/kg. In addition, in [5], the LD50 – broadly, the dose expected to kill half of the subjects tested – at 72 h is 710 mg/kg. The “hypnotic use, in words (Inoue et al)” value in series [8] is given as “useful as hypnotic agents”.

`Cc1ccccc1-n1c(CF)nc2ccc([N+](=O)[O-])cc2c1=O` [2-fluoromethyl-3-(o-tolyl)-6-nitro-4(3H)-quinazolinone]: the ED50 in the series on mice [1], in the series with mice [2] and in the series on mice [3] was greater than 100 mg/kg in each case. The TD50 in [4] was greater than 100 mg/kg. In series [8], the “hypnotic use, in words (Inoue et al)” value was “useful as hypnotic agents”.

For `Cc1ccccc1-n1c(C)nc2ccc(N)cc2c1=O` [2-methyl-3-(o-tolyl)-6-amino-4(3H)-quinazolinone], the ED50 in the series on mice [1] amounted to 24 mg/kg; with mice [2] it was 22.5 mg/kg; in the series with mice [3], 22.5 mg/kg; in [6] (mice) it was 16.9 mg/kg; in series [7], 10 mg/kg. Besides, the TD50 in series [4] was 33.7 mg/kg. Also, the “muscle relaxing activity, in words” value with mice [9] was “relatively strong muscle relaxing activity”. Further, the “muscle relaxing activity, in words (Breuer et al)” value in series [10] was “shows a muscle relaxing activity”.

Turning to `CN1C(=O)CCS(=O)(=O)C1c1ccc(Cl)cc1` (stereo not drawn) [Chlormezanone, 2-(p-chlorophenyl)tetrahydro-3-methyl-4H-1,3-thiazin-4-one 1,1-dioxide], the ED50 with mice [1] is 208 mg/kg; in the series on mice [2], 156 mg/kg; with mice [3] it was 222 mg/kg; in [6] (mice), 28.8 mg/kg; in series [7] it was 258 mg/kg. The selectivity ratio came out at 2.47 in [4] (setting [14]); 1.74 in series [4] (setting [15]); 1.86 in series [4] (setting [16]); 8.6 in series [5] (setting [17]); 6.1 in series [5] (setting [18]); 6.5 in series [5] (setting [19]). Moreover, the TD50 in [4] is 386 mg/kg. The “hypnotic activity (side effect), in words” value (shortened to “hypnotic activity”) with mice [11] is “potent hypnotic activity”. Further, the LD50 at 72 h in series [5] was 1340 mg/kg.

With `Cc1cccc(Nc2ccccc2C(=O)O)c1C` [Mefenamic acid, N-(2,3-xylyl)anthranilic acid], the “decrease in carageenin-induced edema” value in the series on carageenin-induced edema (200 mg of Mefenamic acid required, same condition (oral, rats)) is given as 25%.

As to `Cc1ccccc1OCC(O)CO` (stereo not drawn) [Mephenesin, 3-(o-tolyloxy)-1,2-propanediol], the ED50 stood at 527 mg/kg with mice [1], 551 mg/kg in the series with mice [2], 498 mg/kg in the series with mice [3] and 600 mg/kg in [6] (mice). For the same compound, the selectivity ratio in series [4] (setting [14]) was determined as 1.5; in series [4] (setting [15]) it was 1.66; in series [4] (setting [16]) it was 1.56; in series [5] (setting [17]), 3.7; in series [5] (setting [18]), 4.1; in series [5] (setting [19]), 3.8. The TD50 in series [4] came out at 824 mg/kg. For the same compound, the “hypnotic activity” value in the series with mice [11] is “potent hypnotic activity”. For the same compound, the LD50 at 72 h in series [5] came to 2020 mg/kg.

As to `Cc1ccccc1-n1c(CF)nc2ccc(N)cc2c1=O` [quinazolinone derivative [I], 2-fluoromethyl-3-(o-tolyl)-6-amino-4(3H)-quinazolinone], the ED50 in the series on mice [1] is 20.7 mg/kg; in the series on mice [2] it was 19.3 mg/kg; in the series with mice [3], 22.4 mg/kg; in series [6] (mice) it was 15.7 mg/kg; in [7], 11.8 mg/kg. For the same compound, the selectivity ratio in series [4] (setting [14]) amounted to 2.75; in series [4] (setting [15]) it was 2.37; in series [4] (setting [16]) it was 2.57; in [5] (setting [17]), 27.4; in series [5] (setting [18]), 23.6; in series [5] (setting [19]), 25.5. Further, the TD50 in [4] came out at 53.1 mg/kg. Further, the “hypnotic activity” value in the series with mice [11] is “relatively less hypnotic activity”. The “therapeutic index, times superior to Chlormezanone” value with mice [11] (vs Chlormezanone, ratio of muscle relaxing to hypnotic activity) is “about 2 times”. In addition, in the series with mice [11] (vs Mephenesin, ratio of muscle relaxing to hypnotic activity), the “therapeutic index, times superior to Mephenesin” value is “about 2 times”. Besides, the LD50 at 72 h in [5] stood at 528 mg/kg. In addition, the “safety margin, times superior to 2-methyl-3-(o-tolyl)-6-amino-4(3H)-quinazolinone” value with mice [12] is recorded as “about 7 times”. Moreover, in [6] (mouse, in vivo), the “anti-convulsive activity, in words” value was “potent”. Further, in series [6] (vs 2-fluoromethyl-3-(o-tolyl)-4(3H)-quinazolinone, mice), the “anti-cardiazol activity, times superior to 2-fluoromethyl-3-(o-tolyl)-4(3H)-quinazolinone” value amounted to 3.6 times. The “anti-cardiazol activity, times superior to 2-methyl-3-(o-tolyl)-6-amino-4(3H)-quinazolinone” value in series [6] (vs 2-methyl-3-(o-tolyl)-6-amino-4(3H)-quinazolinone, mice) worked out at 1.1 times. Further, the “anti-cardiazol activity (ED50), times superior to Chlormezanone” value in series [6] (vs Chlormezanone, mice) was “about 2 times”. Moreover, the “analgesic activity (ED50) compared with Chlormezanone” value in series [7] (acetic acid-writhing method, in words) is reported as “apparently stronger than that of Chlormezanone”. Also, in series [7] (mouse, in vivo), the “analgesic activity, in words” value was “potent”. Besides, the “Anti-inflammatory activity: preventive effect (%) against carageenin-induced edema” value with carageenin-induced edema (oral, rats, 30 mg/kg, 3 hours after carageenin) was determined as 28%. Moreover, in the series on carageenin-induced edema (rat, in vivo), the “anti-inflammatory activity, in words” value is “potent anti-inflammatory activity”. Besides, the “tranquilizing activity, in words” value in series [13] is recorded as “potent”.
